# Assay results from patent US11753445B2, “Therapeutic peptides” (COHBAR, INC., priority 2016, dated 2023).
# Peptide text beside a SMILES is read from it.
# System: 3T3-L1 Adipocytes
# Test: Free fatty acid levels in cultured mouse 3T3-L1 adipocytes, isoproterenol stimulated (Example 2)
# Assay type: cell-based
# Details: test peptides 25 μM; isoproterenol 1 nM
# Outline: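 3T3-L1 cells differentiated 12–17 days into adipocytes, then exposed to test peptides at 25 μM final for 18–20 h, then 1 h, then 3 h with isoproterenol (1 nM) at 37 °C. Free fatty acids in the medium measured colorimetrically at 540 nm, corrected for untreated background and expressed relative to isoproterenol-only cells.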
row,Molecule,Free Fatty Acid Levels in 3T3-L1 Adipocytes Expressed as a Percent of Isoproterenol Control: Percent of Control Value [%]
1,CC[C@H](C)[C@H](NC(=O)[C@H](Cc1ccc(O)cc1)NC(=O)CNC(=O)[C@H](CCC(=O)O)NC(=O)[C@H](CCC(=O)O)NC(=O)[C@H](CCC(N)=O)NC(=O)[C@H](Cc1c[nH]c2ccccc12)NC(=O)[C@H](CCCNC(=N)N)NC(=O)[C@@H](C)N)C(=O)N[C@@H](C)C(=O)N[C@@H](Cc1ccc(O)cc1)C(=O)N1CCC[C@H]1C(=O)N[C@@H](CCCNC(=N)N)C(=O)N[C@@H](CCCCN)C(=O)N[C@@H](CC(C)C)C(=O)N[C@@H](C)C(=O)O [compound 236] (HELM PEPTIDE1{[dA].R.W.Q.E.E.G.Y.I.A.Y.P.R.K.L.A}$$$$V2.0),74.8
2,CC[C@H](C)[C@H](NC(=O)[C@H](Cc1ccc(O)cc1)NC(=O)CNC(=O)[C@H](CCC(=O)O)NC(=O)[C@H](CCC(=O)O)NC(=O)[C@H](CCC(N)=O)NC(=O)[C@H](Cc1c[nH]c2ccccc12)NC(=O)[C@H](CCCNC(=N)N)NC(=O)[C@@H](C)N)C(=O)N[C@@H](C)C(=O)N[C@@H](Cc1ccc(O)cc1)C(=O)N1CCC[C@H]1C(=O)N[C@@H](CCCNC(=N)N)C(=O)N[C@@H](CCCCN)C(=O)N[C@@H](CC(C)C)C(=O)N[C@H](C)C(=O)O [compound 237] (HELM PEPTIDE1{[dA].R.W.Q.E.E.G.Y.I.A.Y.P.R.K.L.[dA]}$$$$V2.0),85.6
3,CC[C@H](C)[C@H](NC(=O)[C@H](Cc1ccc(O)cc1)NC(=O)CNC(=O)[C@H](CCC(=O)O)NC(=O)[C@H](CCC(=O)O)NC(=O)[C@H](CCC(N)=O)NC(=O)[C@H](Cc1c[nH]c2ccccc12)NC(=O)[C@H](CCCNC(=N)N)NC(=O)[C@@H](C)N)C(=O)N[C@@H](C)C(=O)N[C@@H](Cc1ccc(O)cc1)C(=O)N1CCC[C@H]1C(=O)N[C@@H](CCCNC(=N)N)C(=O)O [compound 238] (HELM PEPTIDE1{[dA].R.W.Q.E.E.G.Y.I.A.Y.P.R}$$$$V2.0),52.9
4,CC[C@H](C)[C@H](NC(=O)[C@H](Cc1ccc(O)cc1)NC(=O)CNC(=O)[C@H](C)NC(=O)[C@H](CCC(=O)O)NC(=O)[C@H](CCC(N)=O)NC(=O)[C@H](Cc1c[nH]c2ccccc12)NC(=O)[C@H](CCCNC(=N)N)NC(=O)[C@@H](N)CCC(=O)O)C(=O)N[C@@H](C)C(=O)N[C@@H](Cc1ccc(O)cc1)C(=O)N1CCC[C@H]1C(=O)N[C@@H](CCCNC(=N)N)C(=O)N[C@@H](CCCCN)C(=O)N[C@@H](CC(C)C)C(=O)N[C@H](C)C(=O)O [compound 240] (HELM PEPTIDE1{E.R.W.Q.E.A.G.Y.I.A.Y.P.R.K.L.[dA]}$$$$V2.0),48.6
5,CC[C@H](C)[C@H](NC(=O)[C@H](Cc1ccc(O)cc1)NC(=O)CNC(=O)[C@H](C)NC(=O)[C@H](CCC(=O)O)NC(=O)[C@H](CCC(N)=O)NC(=O)[C@H](Cc1c[nH]c2ccccc12)NC(=O)[C@H](CCCNC(=N)N)NC(=O)[C@@H](C)N)C(=O)N[C@@H](Cc1ccccc1)C(=O)N[C@@H](CCC(=O)O)C(=O)N1CCC[C@H]1C(=O)N[C@@H](CCCNC(=N)N)C(=O)N[C@@H](CCCCN)C(=O)N[C@@H](CC(C)C)C(=O)N[C@@H](C)C(=O)O [compound 242] (HELM PEPTIDE1{[dA].R.W.Q.E.A.G.Y.I.F.E.P.R.K.L.A}$$$$V2.0),64.9
6,CC[C@H](C)[C@H](NC(=O)[C@H](Cc1ccc(O)cc1)NC(=O)CNC(=O)[C@H](C)NC(=O)[C@H](CCC(=O)O)NC(=O)[C@H](CCC(N)=O)NC(=O)[C@H](Cc1c[nH]c2ccccc12)NC(=O)[C@H](CCCNC(=N)N)NC(=O)[C@@H](C)N)C(=O)N[C@@H](Cc1ccccc1)C(=O)N[C@@H](CCC(=O)O)C(=O)N1CCC[C@H]1C(=O)N[C@@H](CCCNC(=N)N)C(=O)N[C@@H](CCCCN)C(=O)N[C@@H](CC(C)C)C(=O)N[C@H](C)C(=O)O [compound 243] (HELM PEPTIDE1{[dA].R.W.Q.E.A.G.Y.I.F.E.P.R.K.L.[dA]}$$$$V2.0),82.3
7,CC[C@H](C)[C@H](NC(=O)[C@H](Cc1ccc(O)cc1)NC(=O)CNC(=O)[C@H](C)NC(=O)[C@H](CCC(=O)O)NC(=O)[C@H](CCC(N)=O)NC(=O)[C@H](Cc1c[nH]c2ccccc12)NC(=O)[C@H](CCCNC(=N)N)NC(=O)[C@@H](C)N)C(=O)N[C@@H](Cc1ccccc1)C(=O)N[C@@H](CCC(=O)O)C(=O)N1CCC[C@H]1C(=O)N[C@@H](CCCNC(=N)N)C(=O)O [compound 244] (HELM PEPTIDE1{[dA].R.W.Q.E.A.G.Y.I.F.E.P.R}$$$$V2.0),90.3
8,CC[C@H](C)[C@H](NC(=O)[C@H](Cc1ccc(O)cc1)NC(=O)CNC(=O)[C@H](C)NC(=O)[C@H](CCC(=O)O)NC(=O)[C@H](CCC(N)=O)NC(=O)[C@H](Cc1c[nH]c2ccccc12)NC(=O)[C@H](CCCNC(=N)N)NC(=O)[C@@H](C)N)C(=O)N[C@@H](C)C(=O)N[C@@H](CCC(=O)O)C(=O)N1CCC[C@H]1C(=O)N[C@@H](CCCNC(=N)N)C(=O)N[C@@H](CCCCN)C(=O)N[C@@H](CC(C)C)C(=O)N[C@@H](C)C(=O)O [compound 245] (HELM PEPTIDE1{[dA].R.W.Q.E.A.G.Y.I.A.E.P.R.K.L.A}$$$$V2.0),78.1
9,CC[C@H](C)[C@H](NC(=O)[C@H](Cc1ccc(O)cc1)NC(=O)CNC(=O)[C@H](C)NC(=O)[C@H](CCC(=O)O)NC(=O)[C@H](CCC(N)=O)NC(=O)[C@H](Cc1c[nH]c2ccccc12)NC(=O)[C@H](CCCNC(=N)N)NC(=O)[C@@H](C)N)C(=O)N[C@@H](C)C(=O)N[C@@H](CCC(=O)O)C(=O)N1CCC[C@H]1C(=O)N[C@@H](CCCNC(=N)N)C(=O)N[C@@H](CCCCN)C(=O)N[C@@H](CC(C)C)C(=O)N[C@H](C)C(=O)O [compound 246] (HELM PEPTIDE1{[dA].R.W.Q.E.A.G.Y.I.A.E.P.R.K.L.[dA]}$$$$V2.0),73.9
10,Ac-ARWQEMGYIFYPRKLR-NH2 [compound 22],78.7
11,Ac-ERWQEMGYIFYPRKLR-NH2 [compound 183],81.6
12,Ac-LKWQEMGYIFYPLRKR-NH2 [compound 113],82.8
13,Ac-LKWQEMGYIFYPRKLR-NH2 [compound 112],90.5
14,Ac-LKWQEMGYIFYPRKR-NH2 [compound 117],97.7
15,Ac-LKWQEMGYIFYPRKRL-NH2 [compound 115],83.4
16,Ac-LKWQEMGYIFYPRLKR-NH2 [compound 114],78.4
17,Ac-LRWQEMGYIFYPLRKR-NH2 [compound 109],76.6
18,Ac-LRWQEMGYIFYPRKLR-NH2 [compound 108],101.3
19,Ac-LRWQEMGYIFYPRKR-NH2 [compound 116],101.8
20,Ac-LRWQEMGYIFYPRKRL-NH2 [compound 111],106.0
21,Ac-LRWQEMGYIFYPRLKR-NH2 [compound 110],82.6

row,Molecule,Free Fatty Acid Levels in 3T3-L1 Adipocytes Expressed as a Percent of Isoproterenol Control: Percent of Control Value [%]
1,Ac-MAWQEMGYIFYPRKLR-NH2 [compound 23],74.7
2,Ac-MEWQEMGYIFYPRKLR-NH2 [compound 184],97.1
3,Ac-MKWQEMGYIFYPRKLR-NH2 [compound 128],90.0
4,Ac-MREQEMGYIFYPRKLR-NH2 [compound 185],77.0
5,Ac-MRWAEMGYIFYPRKLR-NH2 [compound 25],27.8
6,Ac-MRWEEMGYIFYPRKLR-NH2 [compound 186],102.1
7,Ac-MRWNEMGYIFYPRKLR-NH2 [compound 133],87.5
8,Ac-MRWQDMGYIFYPRRLR-NH2 [compound 132],102.6
9,Ac-MRWQEEGYIFYPRKLR-NH2 [compound 187],98.9
10,Ac-MRWQEMAYIFYPRKLR-NH2 [compound 28],35.5
11,Ac-MRWQEMEYIFYPRKLR-NH2 [compound 188],86.5
12,Ac-MRWQEMGEIFEPRKLR-NH2 [compound 135],79.0
13,Ac-MRWQEMGEIFYPRKLR-NH2 [compound 189],87.6
14,Ac-MRWQEMGYEFYPRKLR-NH2 [compound 190],95.0
15,Ac-MRWQEMGYIEYPRKLR-NH2 [compound 191],81.7
16,Ac-MRWQEMGYIF-NH2 [compound 64],90.6
17,Ac-MRWQEMGYIFEPRKLR-NH2 [compound 192],66.8
18,Ac-MRWQEMGYIFY-NH2 [compound 63],70.5
19,Ac-MRWQEMGYIFYERKLR-NH2 [compound 193],71.2
20,Ac-MRWQEMGYIFYPAKLR-NH2 [compound 34],70.7
